{"source": "paper PMC6504684", "about": "(Frontiers in Pharmacology, 2019)", "origin": "cited, not measured here", "key": {"[1]": {"test_system": "α9α10 nAChR", "settings": "cited from earlier work"}, "[2]": {"test_system": "rat α9α10 nAChR", "settings": "cited from earlier work"}, "[3]": {"test_system": "models of pain and inflammation", "settings": "in vivo; cited from earlier work"}, "[4]": {"test_system": "GABAβ receptors", "settings": "cited from earlier work"}}}
{"substance": "Vc1.1", "values": [{"measurement": "selectivity for the α9α10 nAChR, in words", "setting": "[1]", "value": "α9α10 selective"}, {"measurement": "IC50", "setting": "[2]", "value": 19, "unit": "nM"}, {"measurement": "analgesic and anti-inflammatory effects, in words", "setting": "[3]", "value": "analgesic and anti-inflammatory effects"}, {"measurement": "effects via GABAβ receptors, in words", "setting": "[4]", "value": "can also be transmitted via inhibition of GABAβ receptors"}]}
